# Reference: US20160166487A1, “TOPICAL COMPOSITIONS FOR TREATMENT OF EXCESSIVE SWEATING AND METHODS OF USE THEREOF” (GLAXOSMITHKLINE INTELLECTUAL PROPERTY DEVELOPMENT LIMITED, priority 2013, published 2016)
# How the values were obtained:
# [1] = MALDI imaging of distribution in skin layers; assay type: in vitro ADME, human; conditions: twenty-four hours after single finite topical dose
# Excerpt: Matrix-assisted laser desorption/ionization (MALDI) has emerged as a powerful and diverse technology for analyzing the spatial distribution of endogenous and exogenous compounds directly from a tissue section. [See Seeley E H, Caprioli R M. MALDI imaging mass spectrometry of human tissue: method challenges and clinical perspectives. Trends Biotechnol. 29(3), 136-143 (2011); and Svatos A. Mass spectrometric imaging of small molecules. Trends Biotechnol. 28(8), 425-434 (2010)]. […] Anal Bioanal Chem. (2013); 405(4):1159-70]. MALDI imaging in human skin tissue sections: focus on various matrices and enzymes.
# [2] = Irritation potential of topical solution; conditions: solution comprising 2.2% w/w umeclidinium bromide
# [3] = Clinical study, single topical [14C] umeclidinium dose to axilla or palm of healthy male subjects; assay type: in vivo, human
# Procedure: Up to four cohorts were to be enrolled (Cohort A: unoccluded axilla; Cohort B: occluded axilla; Cohort C: unoccluded palm; Cohort D: occluded palm). Six subjects were to be dosed in each cohort and complete the study procedures.
# On the day of dosing, subjects will receive the study drug applied to the axilla or palm. Each subject will only receive a single dose of study drug which will be applied to the test site and remain on the application site for 8 hours. Serial blood samples will be collected throughout treatment. An interim analysis using simulations will be conducted after each cohort to determine the likelihood of exceeding the safety cover for Cmax or AUC and the likelihood of obtaining quantifiable concentrations sufficient to determine the half-life in the subsequent cohorts.
# [4] = Population pharmacokinetic model of IV and occluded axilla plasma data; assay type: in vivo, human
# Excerpt: Of the drug that was available systemically, 9.70% (66.7%) was absorbed through a zero order process.
# [5] = 0.5 mg (500 mcg) inhaled once daily for 10 days, thorough QT study; cited from earlier work
smiles,measurement,setting,value
"OC(c1ccccc1)(c1ccccc1)C12CC[N+](CCOCc3ccccc3)(CC1)CC2 [umeclidinium, 4-[hydroxy(diphenyl)methyl]-1-{2-[(phenylmethyl)oxy]ethyl}-1-azoniabicyclo[2.2.2]octane]",qualitative distribution in the skin layers,[1],penetrated to the deeper sections of the dermis and accumulated in the area where the sweat glands are present
same,irritation potential,[2],low irritation potential
same,"percent dose recovered from the skin surface, mean","[3]; Cohort A, unoccluded axilla, end of 8 hour application, range 77.7-84.1%",80.6%
same,median time to maximum plasma concentration,"[3]; Cohort A, unoccluded axilla, range: 12 h-30 h",13 h
same,"percent dose recovered from the skin surface, mean","[3]; Cohort B, occluded axilla, range 69.2%-81.7%",75.4%
same,median time to maximum concentration,"[3]; Cohort B, occluded axilla, range: 2 h-24 h",13 h
same,plasma concentrations,"[3]; Cohort D, occluded palm",no quantifiable plasma concentrations
same,"percent dose recovered from the skin surface, mean","[3]; Cohort D, occluded palm, range 45.6%-59.9%",52.5%
same,"estimated absolute plasma bioavailability, mean (RSE %)","[4]; administration to occluded axilla, RSE 55.3%",0.19%
same,"share of systemically available drug absorbed through a zero order process, mean (RSE %)","[4]; occluded axilla, RSE 66.7%",9.70%
same,tolerability,[5],well tolerated
